# Data from patent publication US11547698B2, “Aryl hydrocarbon receptor modulators” (ARIAGEN, INC., priority 2016, dated 2023).
# Molecular target: T1, AhR receptor (Homo sapiens, UniProt P35869)
# T1 construct: cells of reporter gene expressing natural (Human Hepatoma Huh-7) AhR receptor; endogenous in cells; host or cells: Human hepatoma Huh-7 reporter cells (firefly luciferase under a receptor-specific response element)
# T1 sequence (P35869 11-848): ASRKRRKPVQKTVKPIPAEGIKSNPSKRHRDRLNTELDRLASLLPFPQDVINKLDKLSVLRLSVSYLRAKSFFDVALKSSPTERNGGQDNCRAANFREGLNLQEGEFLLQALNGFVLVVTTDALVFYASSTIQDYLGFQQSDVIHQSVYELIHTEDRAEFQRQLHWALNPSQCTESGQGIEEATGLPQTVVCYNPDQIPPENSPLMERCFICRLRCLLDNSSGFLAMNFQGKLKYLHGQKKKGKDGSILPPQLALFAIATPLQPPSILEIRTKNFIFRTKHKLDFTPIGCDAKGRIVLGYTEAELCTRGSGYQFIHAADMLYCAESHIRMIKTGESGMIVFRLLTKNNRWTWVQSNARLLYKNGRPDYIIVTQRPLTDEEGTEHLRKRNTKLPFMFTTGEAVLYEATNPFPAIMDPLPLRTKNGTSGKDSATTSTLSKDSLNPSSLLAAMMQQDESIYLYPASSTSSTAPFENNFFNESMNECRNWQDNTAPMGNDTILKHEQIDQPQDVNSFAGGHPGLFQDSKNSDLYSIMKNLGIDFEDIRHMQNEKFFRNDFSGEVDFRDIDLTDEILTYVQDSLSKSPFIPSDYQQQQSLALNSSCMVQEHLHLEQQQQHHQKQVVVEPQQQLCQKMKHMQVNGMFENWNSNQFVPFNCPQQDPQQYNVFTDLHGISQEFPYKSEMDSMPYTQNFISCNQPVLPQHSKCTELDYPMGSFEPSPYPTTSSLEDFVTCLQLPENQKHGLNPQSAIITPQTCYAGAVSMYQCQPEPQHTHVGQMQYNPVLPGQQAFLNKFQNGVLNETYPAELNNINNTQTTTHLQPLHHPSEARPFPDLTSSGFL
# Assay: AhR agonist assay (luciferase reporter gene cells)
# Format: cell-based
# Conditions: reporter cells expressing natural (Human Hepatoma Huh-7) AhR receptor, firefly luciferase, 24 hours at 37° C., 0.1% DMSO
# Method: Experimental material (plasmids): cells of reporter gene expressing natural (Human Hepatoma Huh-7) AhR receptor, in which reporter vector comprises a functional firefly luciferase gene connecting to an upstream receptor specific genetic response element (GRE).
# AhR agonist test includes following three steps:
# 1, Implanting into cells: a suspension of reporter cell of AhR receptor was prepared in cell recovery medium (CRM; containing 10% charcoal-treated FBS). Then the suspension (100 μL) was assigned to wells in a white culture plate with 96 wells.
# 2, Before the experiment was about to begin, Master Stocks was diluted to be a processing medium of “concentration of 2 X” by use of appropriate compound screening assay medium (CSM: containing 10% charcoal-treated FBS). Test compounds were diluted with gradient method by use of CSM medium containing 0.2% DMSO to make the final concentration of DMSO in each well of each treatment group being 0.1%. The processing medium was added to culture plate (100 μL/well) on which cells containing reporter gene had been laid in advance in wells by means of double duplicate. The culture plate was placed in an incubator of 37° C. for 24 hours.
# 3, Fluorescence detection and analysis: after incubation, the processing medium was discarded and luciferase detection reagent was added 100 μL/well. Ave RLU (mean relative fluorescence intensity) of each well and coefficient of variation for each set of experiments were detected. Ratio of Ave RLU^Test Cmpd of treatment groups with test compound of different concentrations to Ave RLU^Vehicle of blank control group can determine activity quantitatively of AhR receptor under influence of test compound of different concentrations and activating multiples as well as EC50.
# Processing method of data may refer to J. Biomol.
row,SMILES,EC50 [µM]
1,COC(=O)c1csc(/C(=N\O)c2c[nH]c3ccccc23)n1 [Compound 26-2],1 to 10
2,O=C(c1nc(-c2cnccn2)cs1)c1c[nH]c2ccccc12 [Compound 39],0.001 to 1
3,COC(=O)c1csc(C(=O)c2cn(C3OC(CO)C(O)C(O)C3O)c3ccccc23)n1 (stereo not shown) [Compound 38-4],0.001 to 1
4,COC(=O)C1CSC(C(=O)c2c[nH]c3ccc(OC)cc23)=N1 (stereo not shown) [Compound 19-1],0.001 to 1
5,CC(C)[C@H](N)C(=O)n1cc(C(=O)c2nc(-c3nccs3)cs2)c2ccccc21 [Compound 42-2],0.001 to 1
6,O=C(c1nc(C2=NCCO2)cs1)c1c[nH]c2ccccc12 [Compound 33-1],0.001 to 1
7,COC(=O)c1coc(-c2csc(C(=O)c3c[nH]c4ccccc34)n2)n1 [Compound 30-2],0.001 to 1
8,O=C(c1nc(-c2nnn[nH]2)cs1)c1c[nH]c2ccccc12 [Compound 35],1 to 10
9,COC(=O)c1csc(C(=O)c2cn(CO)c3ccccc23)n1 [Compound 37],0.001 to 1
10,COC(=O)c1csc(C(=O)c2cn(C3OC(COC(C)=O)C(O)C(O)C3O)c3ccccc23)n1 (stereo not shown) [Compound 38-3],0.001 to 1
11,COC(=O)c1csc(C(=O)c2cn(C3OC(COC(C)=O)C(OC(C)=O)C(OC(C)=O)C3OC(C)=O)c3ccccc23)n1 (stereo not shown) [Compound 38-2],0.001 to 1
12,COC(=O)c1ccc(C(=O)c2c[nH]c3ccccc23)n1C [Compound 12],0.001 to 1
13,COCCOCCOCCOCC(=O)OCC(=O)OCn1cc(C(=O)c2nc(C(=O)OC)cs2)c2ccccc21 [Compound 7],0.001 to 1
14,O=C(c1nc(-c2ncco2)cs1)c1c[nH]c2ccccc12 [Compound 33-2],0.001 to 1
15,COC(=O)c1csc(C(=O)c2cn(C(=O)[C@@H](N)C(C)C)c3ccccc23)n1 [Compound 4-2],0.001 to 1
16,COCCOCCOCCOC(=O)n1cc(C(=O)c2nc(C(=O)OC)cs2)c2ccccc21 [Compound 5],0.001 to 1
17,CO/N=C(/c1nc(C(=O)OC)cs1)c1c[nH]c2ccccc12 [Compound 25-1],1 to 10
18,COC(=O)c1csc(C(=O)c2c[nH]c3ccccc23)c1 [Compound 15],10 to 100
19,COC(=O)c1csc(C(=O)c2cn(COC(=O)[C@@H](N)C(C)(C)C)c3ccccc23)n1 [Compound 2-2],0.001 to 1
20,COC(=O)[C@@H]1COC(c2csc(C(=O)c3c[nH]c4ccccc34)n2)=N1 [Compound 30-1],0.001 to 1
21,COC(=O)C1CSC(c2csc(C(=O)c3c[nH]c4ccccc34)n2)=N1 (stereo not shown) [Compound 32-1],0.001 to 1
22,COC(=O)c1csc(C(=O)c2cn(COC(=O)[C@@H](N)C(C)C)c3ccccc23)n1 [Compound 1-2],0.001 to 1
23,COC(=O)CNC(=O)c1csc(C(=O)c2c[nH]c3ccccc23)n1 [Compound 27],0.001 to 1

row,SMILES,EC50 [µM]
1,O=C(c1nc(-c2nnc[nH]2)cs1)c1c[nH]c2ccccc12 [Compound 36],0.001 to 1
2,COC(=O)COCn1cc(C(=O)c2nc(C(=O)OC)cs2)c2ccccc21 [Compound 3],0.001 to 1
3,COC(=O)c1c[nH]c(C(=O)c2c[nH]c3ccccc23)n1 [Compound 23],0.001 to 1
4,O=C(c1nc(-c2nccs2)cs1)c1c[nH]c2ccccc12 [Compound 31-2],0.001 to 1
5,O=C(c1nc(C2=NCCS2)cs1)c1c[nH]c2ccccc12 [Compound 31-1],0.001 to 1
6,CO/N=C(\c1nc(C(=O)OC)cs1)c1c[nH]c2ccccc12 [Compound 25-2],1 to 10
7,COC(=O)c1csc(C(=O)c2c[nH]c3ccc(OC)cc23)n1 [Compound 19-2],0.001 to 1
8,COC(=O)c1nsc(C(=O)c2c[nH]c3ccccc23)n1 [Compound 8],1 to 10
9,O=C(c1nc(-c2ccccn2)cs1)c1c[nH]c2ccccc12 [Compound 22],0.001 to 1
10,Nc1nc(-c2csc(C(=O)c3c[nH]c4ccccc34)n2)cs1 [Compound 44],0.001 to 1
11,COC(=O)c1ccc(C(=O)c2c[nH]c3ccccc23)nc1 [Compound 18],1 to 10
12,CC(C)c1csc(C(=O)c2c[nH]c3ccccc23)n1 [Compound 21],0.001 to 1
13,COC(=O)c1csc(Cc2c[nH]c3ccccc23)n1 [Compound 28],10 to 100
14,CC(C)[C@H](NC(=O)OC(C)(C)C)C(=O)n1cc(C(=O)c2nc(-c3nccs3)cs2)c2ccccc21 [Compound 42-1],0.001 to 1
15,O=C(c1nc(-c2c[nH]cn2)cs1)c1c[nH]c2ccccc12 [Compound 43-2],0.001 to 1
16,CC(C)c1nc(C(=O)c2c[nH]c3ccccc23)cs1 [Compound 9],0.001 to 1
17,COCCOCCOCCOCC(=O)OCn1cc(C(=O)c2nc(C(=O)OC)cs2)c2ccccc21 [Compound 6],0.001 to 1
18,COC(=O)c1csc(C(=O)c2cn(C3OC(COC(C)=O)C(OC(C)=O)C(OC(C)=O)C3OC(C)=O)c3ccccc23)n1 (stereo not shown) [Compound 38-1],0.001 to 1
19,O=C(c1nc(C2CC2)cs1)c1c[nH]c2ccccc12 [Compound 41],0.001 to 1
20,O=C(c1nc(-c2ccco2)cs1)c1c[nH]c2ccccc12 [Compound 40],0.001 to 1
21,COC(=O)c1csc(-c2csc(C(=O)c3c[nH]c4ccccc34)n2)n1 [Compound 32-2],0.001 to 1
22,COC(=O)c1csc(/C(=N/O)c2c[nH]c3ccccc23)n1 [Compound 26-1],1 to 10
23,COC(=O)c1nnc(C(=O)c2c[nH]c3ccccc23)o1 [Compound 34],1 to 10
